Experimental findings from article PMC11648675 (Cell, 2024) are described below.

In one data set the test system is EMT6 cells. Briefly: cell death of EMT6 cells in vitro. The class given is cell-based, mouse. The settings on record: for cell death at concentration used for vaccination: 60 μM; for LDH release: WT EMT6 cells; for potency at killing WT EMT6 cells: cell-titer Glo assay, in vitro.
The next data set relates to EMT6 tumor challenge. Briefly: vaccination with drug-treated EMT6 cells and EMT6 challenge. The class given is in vivo, mouse. The note with it: for mice remaining tumor-free after challenge: immunization with drug-treated EMT6 cells, challenge 8 days later.
Data set [1] relates to human peripheral blood mononuclear cells (PBMCs). In words: cell death of human PBMCs. The class given is cell-based.
The test system of a further data set is CT26 colorectal cancer. Briefly: subcutaneous CT26 tumors in syngeneic mice. The settings on record: 10 mg/kg. The class given is in vivo, mouse.
For a further data set, the target named is C191A GSDMD (Homo sapiens, UniProt P57764, C191A). Briefly: liposome leakage assay with C191A GSDMD. The data set is classed as biochemical.
C191A GSDMD, sequence (P57764 whole entry C191A): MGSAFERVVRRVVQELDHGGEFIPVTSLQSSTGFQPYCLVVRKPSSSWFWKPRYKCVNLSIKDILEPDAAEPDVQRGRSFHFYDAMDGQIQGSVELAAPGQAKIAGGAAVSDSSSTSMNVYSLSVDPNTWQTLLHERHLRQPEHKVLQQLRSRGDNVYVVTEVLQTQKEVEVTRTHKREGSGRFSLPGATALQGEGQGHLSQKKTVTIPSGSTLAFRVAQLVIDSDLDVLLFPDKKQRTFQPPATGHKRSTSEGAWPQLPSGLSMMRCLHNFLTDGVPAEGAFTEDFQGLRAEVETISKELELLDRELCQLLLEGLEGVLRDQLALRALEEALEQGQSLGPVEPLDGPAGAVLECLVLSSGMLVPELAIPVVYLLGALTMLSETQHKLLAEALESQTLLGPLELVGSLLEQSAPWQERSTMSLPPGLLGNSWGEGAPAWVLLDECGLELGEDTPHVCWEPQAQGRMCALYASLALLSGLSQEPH
The test system of the next data set is THP-1 cells. In words: cell death of WT THP-1 cells by PI uptake. The data set is classed as cell-based, human.
The target of another data set is C38A GSDMD (Homo sapiens, UniProt P57764, C38A). In words: liposome leakage assay with C38A GSDMD. The note with it: read-out: EC50 for activating GSDMD pore formation. The class given is biochemical.
C38A GSDMD, sequence (P57764 whole entry C38A): as the sequence (P57764 whole entry C191A) above, with C38A, A191C counted along it
The subject of data set [2] is immortalized mouse BMDMs (iBMDMs). Briefly: cell death of immortalized mouse BMDMs. The settings on record: WT iBMDMs, 5 and 20 μM; not affected by caspase-1/11 ablation. The class given is cell-based.
Data set [3] relates to human GSDMA, GSDMB, GSDMC, GSDME. Briefly: liposome leakage assay with other human gasdermins. The settings on record: gasdermins 0.3 μM. The data set is classed as biochemical.
Data set [4] deals with primary mouse bone-marrow-derived macrophages (BMDMs). In words: cell death of primary mouse BMDMs. The data set is classed as cell-based. The settings on record: WT and GSDMD KO primary BMDMs.
For data set [5], the system named is B16 cells expressing human GSDMD-GFP.
The next data set has as its system 4T1E tumors. In words: orthotopic 4T1E tumors in BALB/c mice, DMB and anti-PD-1. The note with it: DMB 1 mg/kg weekly; anti-PD-1 every 2 days. The class given is in vivo, mouse.
Data set [6] relates to GSDMD knockout (KO) THP-1 cells. In words: cell death of GSDMD KO THP-1 cells by PI uptake. The note with it: 5 or 20 μM. The data set is classed as cell-based, human.
Data set [7] has as its target T1, Human GSDMD (Homo sapiens, UniProt P57764). Briefly: time-resolved fluorogenic. The data set is classed as biochemical. The note with it: read-out: EC50 of liposome leakage; human GSDMD 0.3 μM, Tb3+/DPA fluorescence.
In data set [8] the target is mCherry-tagged full-length GSDMD (Homo sapiens, UniProt P57764). Briefly: membrane localization of mCherry-tagged full-length GSDMD in HEK293T cells. The class given is cell-based. The settings on record: increasing concentrations of DMB.
mCherry-tagged full-length GSDMD, sequence (P57764 whole entry): as the sequence (P57764 whole entry C191A) above, with A191C counted along it
Data set [9] concerns the target T1, Human GSDMD. Briefly: microscale thermophoresis. The class given is binding. The note with it: read-out: dissociation constant (KD) by MST; Alexa 647-labeled GSDMD.
For data set [10], the system named is Gsdmd−/− and Gsdmd−/−Gsdme−/− EMT6 tumors. In words: orthotopic gasdermin-KO EMT6 tumors in BALB/c mice. The data set is classed as in vivo, mouse. The note with it: 10 mg/kg weekly.
The subject of data set [11] is GSDMD KO THP-1 cells reconstituted with WT or D275A GSDMD. Briefly: PI uptake in GSDMD KO THP-1 cells reconstituted with WT or D275A GSDMD. The class given is cell-based, human. The note with it: 5 or 20 μM, 1, 2 and 4 h.
The target in data set [12] is GSDMD (YFP at N terminus, RLuc at C terminus) (Homo sapiens, UniProt P57764). Briefly: BRET assay of GSDMD NT-CT distance. The class given is cell-based.
GSDMD (YFP at N terminus, RLuc at C terminus), sequence (P57764 whole entry): as the sequence (P57764 whole entry C191A) above, with A191C counted along it
For the next data set, the system named is WT EMT6 tumors. In words: orthotopic WT EMT6 tumors in BALB/c mice. The data set is classed as in vivo, mouse.
Data set [13] can be described thus: toxicity readouts in treated tumor-bearing mice. The class given is in vivo, mouse.
For data set [14], the system named is B16 cells that expressed GFP. Briefly: subcutaneous B16-GFP tumors in syngeneic mice. The note with it: 10 mg/kg every 3 days x6. The class given is in vivo, mouse.
A further data set concerns the target recombinant caspase-1 (Homo sapiens, UniProt P29466). In words: Caspase-1 activity assay. The class given is biochemical. The note with it: in vitro, DMB 10 μM, Z-YVAD-AFC substrate.
The test system of data set [15] is KP lung adenocarcinoma tumors. In words: subcutaneous KP tumors in WT and Gsdmd−/− C57BL/6 mice. The data set is classed as in vivo, mouse.
In a further data set the test system is mouse GSDMD. Briefly: liposome leakage assay with mouse GSDMD. The class given is biochemical.
Data set [16] concerns full-length GSDMD in HEK293T cells. In words: activation of full-length GSDMD in transfected HEK293T cells. The data set is classed as cell-based, human.
The test system of data set [17] is Human GSDMD-GFP-expressing B16 cells. Briefly: pyroptosis of B16-GSDMD-GFP cells in vitro by PI uptake. The data set is classed as cell-based, mouse. The settings on record: 10 μM DMB.
The next data set has as its system NLRP3. Briefly: NLRP3 activation in LPS-primed THP-1 cells. The settings on record: treatment after LPS priming. The class given is cell-based, human.
A further data set deals with EMT6 tumors in NSG mice. In words: EMT6 tumors in NSG mice. The class given is in vivo, mouse. The settings on record: NSG mice lacking functional lymphocytes.
The mark [18] stands for this setting: 10 mg/kg i.p. every 3 days x6 from day 5.

Where a SMILES comes first, the peptide text is derived from it. The star is where a group is joined. CH2Cl = ClC*

T1 sequence (P57764 whole entry): as the sequence (P57764 whole entry C191A) above, with A191C counted along it
recombinant caspase-1, sequence (P29466 120-297 limits assumed, species assumed): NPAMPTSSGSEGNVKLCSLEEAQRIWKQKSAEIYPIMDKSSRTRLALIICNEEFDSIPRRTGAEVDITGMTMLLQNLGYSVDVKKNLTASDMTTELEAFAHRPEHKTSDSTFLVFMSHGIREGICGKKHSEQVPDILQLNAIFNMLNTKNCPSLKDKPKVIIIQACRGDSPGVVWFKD
recombinant caspase-1, sequence (P29466 317-404 limits assumed, species assumed): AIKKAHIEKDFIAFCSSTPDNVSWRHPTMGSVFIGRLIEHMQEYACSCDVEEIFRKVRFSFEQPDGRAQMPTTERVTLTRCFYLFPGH

`CC(=O)N[C@@H](Cc1ccccc1)C(=O)N[C@@H](CC(C)C)C(=O)N[C@H](C(=O)N[C@@H](CC(=O)O)C(=O)CCl)[C@@H](C)O` [AC-FLTD-CMK] (Ac-FLTD-CH2Cl): the “effect of caspase inhibition on DMB-induced SYTOX Green uptake” value in the data set on EMT6 cells (EMT6 cells) is listed as “did not affect DMB-induced pyroptosis”.

In the case of `CO[C@@]12[C@H](COC(N)=O)C3=C(C(=O)C(C)=C(N)C3=O)N1C[C@@H]1N[C@@H]12` [MMC, mitomycin C], in the data set with EMT6 cells (EMT6 cells), the “ATP release into supernatants” value was “did not trigger ATP release”. Also, the “cell death at concentration used for vaccination” value with EMT6 cells (EMT6 cells, 20 h) is reported as 60–70%. In addition, in the data set with EMT6 cells, the LDH release result was “much less and delayed LDH release”; the “potency at killing WT EMT6 cells” value is recorded as “similarly potent”. Also, in the data set with EMT6 tumor challenge, the “mice remaining tumor-free after challenge” value is listed as “tumors grew in all the mice”.

On to `CCN(CC)C(=S)SSC(=S)N(CC)CC` [disulfiram, reference compound], for which the “effect of pretreatment on DMB-induced cell death” value in data set [1] (pretreatment before DMB) is given as “strongly suppressed cell death”.

With `CC(C)(C)Nc1nc2cc(Cl)c(Cl)cc2nc1S(C)(=O)=O` [DMB, 6,7-dichloro-2-methylsulfonyl-3-N-tert-butylaminoquinoxaline], the tumor growth result in the data set with CT26 colorectal cancer is on record as “A similar reduction in tumor growth”; in data set [5] (setting [18]) it was “strongly inhibited tumor growth”; in [10] (Gsdmd−/− EMT6), “not significantly reduced”; in data set [10] (Gsdmd−/−Gsdme−/− EMT6), “not significantly reduced”; with WT EMT6 tumors (10 mg/kg weekly for 2 weeks, WT EMT6) it was “significantly suppressed”; in data set [14] it was “no significant effect”. Further, the tumor growth result is listed as “similarly inhibited” in data set [15] and “did not suppress the growth” in the data set with EMT6 tumors in NSG mice. In addition, the “activation of GSDMD pore formation” value on C191A GSDMD was “not activated”. For the same compound, the “cell death by PI uptake” value is on record as “induced significant cell death within 2 h” in the data set on THP-1 cells (WT THP-1 cells, 5 or 20 μM) and “minimally” in [6]. The concentration for a half-maximal effect (EC50) was 4800 ± 400 nM in the data set on THP-1 cells (read-out: EC50 of DMB-mediated cell death, WT THP-1, PI positivity at 4 h); about 900 nM at C38A GSDMD; 700 nM at Human GSDMD [7]. In addition, the cell death result in [2] is on record as “triggered cell death”. For the same compound, the “activation of other human gasdermins” value in data set [3] was “activated human GSDMD but not other human gasdermins”. In addition, the “GSDMD dependence of cell death induction” value in [4] is reported as “depended on GSDMD”. Besides, in [5] (setting [18]), the “surviving mice cured with no palpable tumor” value is 3. Further, the “mice surviving to the end of the experiment” value in data set [5] (10 mg/kg i.p. every 3 days x6 from day 5, clones 9 and 10) is given as 5 of 16. In data set [5] (CD3+ CD8+ immunofluorescence), the “T cells per tumor area, DMB vs. vehicle” value came to 8.3 fold. Also, the “DCs per tumor area, DMB vs. vehicle” value in [5] (MHCII+ CD11c+ immunofluorescence) is given as 25.2 fold. The “survival of mice bearing smaller tumors, delayed treatment” value in [5] (treatment from day 10, every 3 days x6) was “two of the four”. Moreover, in the data set with 4T1E tumors, the “tumor growth / tumor volume vs vehicle” value is “does not inhibit tumor growth on its own”. In addition, in the data set on EMT6 cells (EMT6 cells), the “ATP release into supernatants” value was “peaked 2 and 3 h”. In addition, in the data set with EMT6 cells (EMT6 cells, 5 h), the “cell death at concentration used for vaccination” value was 60–70%. The LDH release entry with EMT6 cells was “beginning within an hour of treatment”. The “potency at killing WT EMT6 cells” value in the data set with EMT6 cells is given as “similarly potent”. Also, the “membrane localization of mCherry-tagged full-length GSDMD” value in data set [8] is recorded as “up to 88%”. Further, the Kd on Human GSDMD [9] worked out at 1100 ± 400 nM. In [11], the “cell death by PI uptake, WT vs D275A GSDMD rescue” value is “comparable cell death”. Besides, the “BRET signal compared with DMSO control” value in data set [12] is given as “decreased the BRET signal”. The “induction of PI positivity, LDH release, ATP release” value in data set [1] is “robustly induced”. For the same compound, the “GzmB/PFN expression and stimulated IFN-γ/TNF-α production of CD8+ and NK TILs” value in the data set on WT EMT6 tumors (10 mg/kg weekly, WT EMT6 tumors) was “significantly increased”. Moreover, the mouse body weight result in data set [13] (B16 tumor-bearing mice, 10 mg/kg every 3 days x6) was “no effect”. Besides, the blood counts result in data set [13] (EMT6-bearing mice, 10 mg/kg) is recorded as “normal blood counts”. In addition, the “effect on recombinant caspase-1 activity” value at recombinant caspase-1 is “neither inhibited nor activated”. The “tumor size, times smaller than in mice immunized with MMC-treated cells” value with EMT6 tumor challenge (immunization with DMB-treated EMT6 cells) is recorded as 6 times. In addition, the “mice remaining tumor-free after challenge” value in the data set on EMT6 tumor challenge is “Three of 12”. Besides, in the data set with mouse GSDMD, the “fold reduced efficacy on mouse GSDMD vs human GSDMD” value is ~ 5 fold. Also, the “activation of C191R and C191F full-length GSDMD mutants” value in data set [16] was “could not be activated”. In addition, in [17], the “sensitivity to DMB-induced pyroptosis by PI uptake” value is reported as “became sensitive to DMB-induced pyroptosis”. The “NLRP3 activation (ASC speck formation, IL-1β release)” value in the data set with NLRP3 is “did not significantly activate NLRP3”.
